Where “and” joins values, the source holds several entries; their conditions need not be identical. Equal values may be shown once. Toxic doses and inconclusive results are not listed.
Tested on: P388 leukemia ip, CD2F1 mice, survival T/C
Assay: NCI In Vivo Anticancer Drug Screen. Data for tumor model P388 Leukemia (intraperitoneal) in CD2F1 (CDF1) mice
Details: endpoint: median survival time, higher = longer survival
How it was run: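 Mice carrying the transplanted tumor received test compound or vehicle. Survival was recorded in each group, and the value is the treated-group measurement divided by that of the vehicle-treated control group.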

[1] = dose: 50.0 mg/kg/injection, schedule: Q01DX009 (ip), vehicle: saline with Tween-80
[2] = dose: 100.0 mg/kg/injection, schedule: Q01DX009 (ip), vehicle: saline with Tween-80

With `CCOC(=O)[C@@H](F)[C@H](Br)C(=O)OCC` the T/C [1] was 100 % of control and 110 % of control and the T/C [2] was 113 % of control and 122 % of control.
With `CCN=NNc1ccc(C#N)cc1` the T/C (dose: 6.25 mg/kg/injection, schedule: Q01DX009 (ip), vehicle: distilled water + Tween-80) was 104 % of control, the T/C (dose: 12.5 mg/kg/injection, schedule: Q01DX009 (ip), vehicle: distilled water + Tween-80) was 109 % of control and 91 % of control and the T/C (dose: 25.0 mg/kg/injection, schedule: Q01DX009 (ip), vehicle: distilled water + Tween-80) was 119 % of control and 97 % of control. The T/C (dose: 50.0 mg/kg/injection, schedule: Q01DX009 (ip), vehicle: distilled water + Tween-80) was 100 % of control and 123 % of control and the T/C (dose: 100.0 mg/kg/injection, schedule: Q01DX009 (ip), vehicle: distilled water + Tween-80) was 106 % of control.
`Cc1cccc(=O)[n-]1.Cc1cccc(=O)[n-]1.Cc1cccc(=O)[n-]1.Cc1cccc(=O)[n-]1.[Mo+2].[Mo+2]` was tested, and the T/C (dose: 100.0 mg/kg/injection, schedule: Q04DX002 (ip), vehicle: Klucel (hydroxypropylcellulose) (HPC)) was 102 % of control, the T/C (dose: 200.0 mg/kg/injection, schedule: Q04DX002 (ip), vehicle: Klucel (hydroxypropylcellulose) (HPC)) was 98 % of control and the T/C (dose: 400.0 mg/kg/injection, schedule: Q04DX002 (ip), vehicle: Klucel (hydroxypropylcellulose) (HPC)) was 100 % of control.
With `O=C1CSC(=S)N1c1cccc(F)c1` the T/C (dose: 50.0 mg/kg/injection, schedule: Q01DX009 (ip), vehicle: suspension in saline) was 108 % of control, the T/C (dose: 100.0 mg/kg/injection, schedule: Q01DX009 (ip), vehicle: suspension in saline) was 100 % of control and the T/C (dose: 200.0 mg/kg/injection, schedule: Q01DX009 (ip), vehicle: suspension in saline) was 100 % of control.
`COC(=O)C1=C(\N2CCCC2)CC(C)(C)CC(=O)/C=C\1C(=O)OC` was tested, and the T/C (dose: 50.0 mg/kg/injection, schedule: Q01DX005 (ip), vehicle: Klucel (hydroxypropylcellulose) (HPC)) was 92 % of control, the T/C (dose: 100.0 mg/kg/injection, schedule: Q01DX005 (ip), vehicle: Klucel (hydroxypropylcellulose) (HPC)) was 93 % of control and the T/C (dose: 200.0 mg/kg/injection, schedule: Q01DX005 (ip), vehicle: Klucel (hydroxypropylcellulose) (HPC)) was 104 % of control.
For `CNC(=O)c1cccc2c(Nc3ccc(NS(C)(=O)=O)cc3OC)c3cccc(C)c3nc12`, the T/C (dose: 1.56 mg/kg/injection, schedule: Q01DX005 (ip), vehicle: water) was 163 % of control, the T/C (dose: 3.0 mg/kg/injection, schedule: Q01DX005 (ip), vehicle: water) was 175 % of control and the T/C (dose: 3.12 mg/kg/injection, schedule: Q01DX005 (ip), vehicle: water) was 169 % of control. The T/C (dose: 6.25 mg/kg/injection, schedule: Q01DX005 (ip), vehicle: water) was 218 % of control and the T/C (dose: 12.5 mg/kg/injection, schedule: Q01DX005 (oral), vehicle: water) was 151 % of control.
For `CC(C)OC(=S)SCC(=O)c1ccc(Br)cc1`, the T/C [1] was 114 % of control, the T/C [2] was 107 % of control and the T/C (dose: 200.0 mg/kg/injection, schedule: Q01DX009 (ip), vehicle: saline with Tween-80) was 106 % of control.
With `COC(=O)c1cn(C(C)=O)c(C)c1C(=O)OC` the T/C (dose: 100.0 mg/kg/injection, schedule: Q01DX001 (ip), vehicle: saline with Tween-80) was 100 % of control, the T/C (dose: 200.0 mg/kg/injection, schedule: Q01DX001 (ip), vehicle: saline with Tween-80) was 95 % of control and the T/C (dose: 400.0 mg/kg/injection, schedule: Q01DX001 (ip), vehicle: saline with Tween-80) was 104 % of control.
With `C(=C\c1cc2cc(C3=NCCN3)ccc2o1)/c1ccc(C2=NCCN2)cc1` the T/C (dose: 100.0 mg/kg/injection, schedule: Q04DX003 (ip), vehicle: saline) was 153 % of control and 157 % of control.
`O=C(CCSCCC(=O)N/N=C/C(O)C(O)C(O)C(O)CO)N/N=C/C(O)C(O)C(O)C(O)CO` (configuration not stated) was tested, and the T/C (dose: 50.0 mg/kg/injection, schedule: Q01DX005 (ip), vehicle: saline with Tween-80) was 99 % of control, the T/C (dose: 50.0 mg/kg/injection, schedule: Q01DX005 (ip), vehicle: saline) was 97 % of control and the T/C (dose: 100.0 mg/kg/injection, schedule: Q01DX005 (ip), vehicle: saline with Tween-80) was 98 % of control. For the same compound, the T/C (dose: 100.0 mg/kg/injection, schedule: Q01DX005 (ip), vehicle: saline) was 98 % of control, the T/C (dose: 200.0 mg/kg/injection, schedule: Q01DX005 (ip), vehicle: saline with Tween-80) was 96 % of control and the T/C (dose: 200.0 mg/kg/injection, schedule: Q01DX005 (ip), vehicle: saline) was 99 % of control.
`CC1(C)N=C(N)N=C(N)N1c1cc(C(F)(F)F)cc(C(F)(F)F)c1` was tested, and the T/C (dose: 7.5 mg/kg/injection, schedule: Q01DX005 (ip), vehicle: Klucel (hydroxypropylcellulose) (HPC)) was 99 % of control, the T/C (dose: 15.0 mg/kg/injection, schedule: Q01DX005 (ip), vehicle: Klucel (hydroxypropylcellulose) (HPC)) was 94 % of control and the T/C (dose: 30.0 mg/kg/injection, schedule: Q01DX005 (ip), vehicle: Klucel (hydroxypropylcellulose) (HPC)) was 105 % of control.

Source: PubChem BioAssay AID330 (DTP/NCI, 2004)
